{
  "source": "the NIST ThermoML archive (doi:10.1021/acs.jced.7b00213)",
  "experiment": "xn = mol fraction of the nth substance listed",
  "details": "Gas, Buoyancy - hydrostatic balance with magnetic suspension - two sinkers, x1 = 0.05362",
  "note": "Numbers after ± are expanded uncertainties.",
  "data": [
    {"compound": "[HH]", "note": "[hydrogen] + O=C=O", "values": [
      {"measurement": "mass density", "setting": "273.15 K, 513.52 kPa", "result": "9.74868 ± 0.0066", "unit": "kg/m3"},
      {"measurement": "mass density", "setting": "273.15 K, 1039.6 kPa", "result": "20.4494 ± 0.013", "unit": "kg/m3"},
      {"measurement": "mass density", "setting": "273.15 K, 1524.6 kPa", "result": "31.0881 ± 0.019", "unit": "kg/m3"},
      {"measurement": "mass density", "setting": "273.15 K, 2022.4 kPa", "result": "42.9575 ± 0.026", "unit": "kg/m3"},
      {"measurement": "mass density", "setting": "273.15 K, 2536.9 kPa", "result": "56.521 ± 0.035", "unit": "kg/m3"},
      {"measurement": "mass density", "setting": "273.15 K, 3036 kPa", "result": "71.3532 ± 0.044", "unit": "kg/m3"},
      {"measurement": "mass density", "setting": "293.15 K, 503.16 kPa", "result": "8.83486 ± 0.0072", "unit": "kg/m3"},
      {"measurement": "mass density", "setting": "293.15 K, 1014.6 kPa", "result": "18.2895 ± 0.014", "unit": "kg/m3"},
      {"measurement": "mass density", "setting": "293.15 K, 1992 kPa", "result": "37.9543 ± 0.029", "unit": "kg/m3"},
      {"measurement": "mass density", "setting": "293.15 K, 3016.7 kPa", "result": "61.5091 ± 0.046", "unit": "kg/m3"},
      {"measurement": "mass density", "setting": "293.15 K, 4051.1 kPa", "result": "89.7154 ± 0.068", "unit": "kg/m3"},
      {"measurement": "mass density", "setting": "293.15 K, 4984.9 kPa", "result": "121.352 ± 0.092", "unit": "kg/m3"},
      {"measurement": "mass density", "setting": "323.15 K, 549.21 kPa", "result": "8.70026 ± 0.0071", "unit": "kg/m3"},
      {"measurement": "mass density", "setting": "323.15 K, 1038.1 kPa", "result": "16.7369 ± 0.013", "unit": "kg/m3"},
      {"measurement": "mass density", "setting": "323.15 K, 2031.1 kPa", "result": "34.0104 ± 0.026", "unit": "kg/m3"},
      {"measurement": "mass density", "setting": "323.15 K, 3009.8 kPa", "result": "52.4905 ± 0.039", "unit": "kg/m3"},
      {"measurement": "mass density", "setting": "323.15 K, 4029.4 kPa", "result": "73.5962 ± 0.055", "unit": "kg/m3"},
      {"measurement": "mass density", "setting": "323.15 K, 5030.4 kPa", "result": "96.6051 ± 0.072", "unit": "kg/m3"},
      {"measurement": "mass density", "setting": "323.15 K, 5997.4 kPa", "result": "121.561 ± 0.092", "unit": "kg/m3"}
    ]}
  ]
}
